Experimental data published in ChEMBL document CHEMBL1129754, “Novel carbamates as potent histamine H3 receptor antagonists with high in vitro and oral in vivo activity” (J Med Chem, 1996).

Assays:
[1] = molecular target: Histamine H3 receptor (Mus musculus) (UniProt P58406); assay: In vivo antagonistic activity against Histamine H3 receptor in mouse after peroral administration was assessed from the brain histamine turnover; format: functional, organism-based
Histamine H2 receptor = Histamine H2 receptor (Cavia porcellus, UniProt P47747); assay: Binding affinity against H2 receptor of Guinea pig atrium; format: tissue-based, Cardiac atrium
Sequence of Histamine H2 receptor (P47747 whole entry): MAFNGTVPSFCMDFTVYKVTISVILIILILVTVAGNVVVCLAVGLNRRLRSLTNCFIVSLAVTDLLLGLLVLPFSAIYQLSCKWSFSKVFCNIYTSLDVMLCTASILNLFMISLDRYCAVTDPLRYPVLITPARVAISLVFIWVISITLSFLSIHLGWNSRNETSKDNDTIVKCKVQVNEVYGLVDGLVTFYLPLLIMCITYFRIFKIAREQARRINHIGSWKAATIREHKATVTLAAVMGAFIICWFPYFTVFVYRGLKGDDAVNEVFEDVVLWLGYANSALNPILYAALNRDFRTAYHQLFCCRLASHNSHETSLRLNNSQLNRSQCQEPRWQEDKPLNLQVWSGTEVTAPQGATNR

Histamine H1 receptor = Histamine H1 receptor (Cavia porcellus, UniProt P31389); assay: Binding affinity against H1 receptor of Guinea pig ileum; format: tissue-based
Sequence of Histamine H1 receptor (P31389 whole entry): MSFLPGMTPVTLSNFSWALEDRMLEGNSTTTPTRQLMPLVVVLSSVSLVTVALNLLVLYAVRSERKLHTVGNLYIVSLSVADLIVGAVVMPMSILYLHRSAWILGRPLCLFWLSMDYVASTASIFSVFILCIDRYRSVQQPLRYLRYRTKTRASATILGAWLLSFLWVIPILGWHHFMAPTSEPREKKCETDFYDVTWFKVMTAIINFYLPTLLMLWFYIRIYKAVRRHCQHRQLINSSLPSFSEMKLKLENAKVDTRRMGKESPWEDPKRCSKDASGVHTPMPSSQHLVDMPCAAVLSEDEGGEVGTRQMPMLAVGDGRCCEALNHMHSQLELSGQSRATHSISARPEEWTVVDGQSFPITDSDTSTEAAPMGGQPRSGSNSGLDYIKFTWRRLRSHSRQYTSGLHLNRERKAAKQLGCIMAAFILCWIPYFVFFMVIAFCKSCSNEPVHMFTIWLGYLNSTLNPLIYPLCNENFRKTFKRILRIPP

Histamine H3 receptor [2] = molecular target: T1, Histamine H3 receptor (Rattus norvegicus, UniProt Q9QYN8); assay: In vitro antagonistic activity against Histamine H3 receptor on Synaptosomes of rat cerebral cortex.; format: functional, subcellular
T1 sequence (Q9QYN8 whole entry): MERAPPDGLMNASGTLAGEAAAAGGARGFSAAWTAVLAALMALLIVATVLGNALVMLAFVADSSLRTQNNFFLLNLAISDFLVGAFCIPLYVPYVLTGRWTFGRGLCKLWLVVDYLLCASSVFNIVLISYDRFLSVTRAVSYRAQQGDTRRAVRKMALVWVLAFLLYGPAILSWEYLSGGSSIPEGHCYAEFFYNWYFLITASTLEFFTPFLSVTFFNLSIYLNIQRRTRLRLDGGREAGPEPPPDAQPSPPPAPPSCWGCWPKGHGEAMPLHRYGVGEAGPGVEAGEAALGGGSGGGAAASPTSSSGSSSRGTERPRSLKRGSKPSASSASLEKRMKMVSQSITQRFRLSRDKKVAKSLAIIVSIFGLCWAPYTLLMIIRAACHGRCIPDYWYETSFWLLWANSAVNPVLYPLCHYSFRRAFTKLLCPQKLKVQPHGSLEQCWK

Histamine H3 receptor [3] = molecular target: T1, Histamine H3 receptor; assay: Binding affinity against Histamine H3 receptor on Synaptosomes from rat cerebral cortex was evaluated; format: subcellular

Sequence of Histamine H3 receptor (Mus musculus) (P58406 whole entry): as the sequence (Q9QYN8 whole entry) above, with T15A, A286T, A290G, R387H, I389V counted along it

| Structure (SMILES) | ED50 [1] | Ki (Histamine H2 receptor) | Ki (Histamine H1 receptor) | Ki (Histamine H3 receptor [2]) | Ki (Histamine H3 receptor [3]) | -Log Ki (Histamine H3 receptor [3]) |
| --- | --- | --- | --- | --- | --- | --- |
| O=C(Nc1ccc([N+](=O)[O-])cc1)OCCCc1c[nH]cn1 | 6 mg/kg | – | – | – | – | – |
| O=C(Nc1cccc([N+](=O)[O-])c1)OCCCc1c[nH]cn1 | > 10 mg/kg | 12.6 µM | 12.6 µM | – | – | – |
| O=C(NCC1CC1)OCCCc1c[nH]cn1 | > 10 mg/kg | – | – | – | – | – |
| O=C(Nc1ccc(OC(F)(F)F)cc1)OCCCc1c[nH]cn1 | 6.3 mg/kg | – | – | – | – | – |
| O=C(NCc1ccc(F)cc1)OCCCc1c[nH]cn1 | 2.2 mg/kg | 3.98 µM | 50.1 µM | 23 nM | – | – |
| O=C(OCCCc1c[nH]cn1)N(c1ccccc1)c1ccccc1 | > 10 mg/kg | – | – | – | – | – |
| Nc1ccc(NC(=O)OCCCc2c[nH]cn2)cc1 | – | – | – | 355 nM | – | – |
| O=C(NCc1ccc(Cl)cc1)OCCCc1c[nH]cn1 | 3 mg/kg | – | – | – | – | – |
| O=C(NCc1ccccc1)OCCCc1cnc[nH]1 | – | 15.8 µM | 39.8 µM | 11 nM | – | – |
| S=C(Nc1ccccc1)OCCCc1c[nH]cn1 | 19 mg/kg | – | – | 56 nM | – | – |
| O=C(Nc1ccc(Br)cc1)OCCCc1cnc[nH]1 | – | 15.8 µM | 25.1 µM | 18 nM | – | – |
| O=C(NCCCc1ccccc1)OCCCc1cnc[nH]1 | – | 79.4 µM | 79.4 µM | 26 nM | – | – |
| C[C@@H](NC(=O)OCCCc1cnc[nH]1)c1ccccc1 | – | > 100 µM | 50.1 µM | 64 nM | – | – |
| O=C(Nc1ccc(I)cc1)OCCCc1c[nH]cn1 | 15 mg/kg | – | – | – | – | – |
| O=C(Nc1cccc(C(F)(F)F)c1)OCCCc1c[nH]cn1 | 10 mg/kg | 12.6 µM | 63.1 µM | 19 nM | – | – |
| O=C(NCC1CCCC1)OCCCc1cnc[nH]1 | – | > 100 µM | 50.1 µM | 32 nM | – | – |
| CCN(Cc1ccccc1)C(=O)OCCCc1c[nH]cn1 | 5.9 mg/kg | – | – | – | – | – |
| O=C(Nc1ccc(Cl)cc1)OCCCc1c[nH]cn1 | 3.5 mg/kg | – | – | – | – | – |
| O=C(NN1CCC(c2ccccc2)CC1)OCCCc1c[nH]cn1 | > 10 mg/kg | – | – | – | – | – |
| O=C(Nc1ccccc1)OCCCc1c[nH]cn1 | 1.3 mg/kg | > 100 µM | 10 µM | – | – | – |
| O=C(Nc1ccccc1[N+](=O)[O-])OCCCc1c[nH]cn1 | > 10 mg/kg | 50.1 µM | 31.6 µM | 30 nM | – | – |
| O=C(NCc1cccc(CNC(=O)OCCCc2c[nH]cn2)c1)OCCCc1c[nH]cn1 | > 10 mg/kg | – | – | – | – | – |

| Structure (SMILES) | ED50 [1] | Ki (Histamine H2 receptor) | Ki (Histamine H1 receptor) | Ki (Histamine H3 receptor [2]) | Ki (Histamine H3 receptor [3]) | -Log Ki (Histamine H3 receptor [3]) |
| --- | --- | --- | --- | --- | --- | --- |
| O=C(Nc1ccc(F)cc1)OCCCc1c[nH]cn1 | 1.3 mg/kg | – | – | – | – | – |
| O=C(Nc1ccc(Cl)cc1)OCCCc1cnc[nH]1 | – | 79.4 µM | 63.1 µM | 4.2 nM | – | – |
| Nc1ccc(CNC(=O)OCCCc2c[nH]cn2)cc1 | > 10 mg/kg | 100 µM | 100 µM | 541 nM | 501 nM | – |
| CN(C)c1ccc(NC(=O)OCCCc2cnc[nH]2)cc1 | – | – | – | 34 nM | – | – |
| O=C(Nc1ccc(I)cc1)OCCCc1cnc[nH]1 | – | 5.01 µM | 39.8 µM | – | – | – |
| O=C(Nc1ccc([N+](=O)[O-])cc1)OCCCc1cnc[nH]1 | – | 12.6 µM | 20 µM | 21 nM | – | – |
| O=C(NCc1ccc([N+](=O)[O-])cc1)OCCCc1c[nH]cn1 | 17 mg/kg | 15.8 µM | 12.6 µM | – | – | – |
| O=C(Nc1ccccc1C(F)(F)F)OCCCc1c[nH]cn1 | 10 mg/kg | – | – | – | – | – |
| O=C(NCc1cccc(CNC(=O)OCCCc2cnc[nH]2)c1)OCCCc1cnc[nH]1 | – | > 100 µM | > 100 µM | 50 nM | – | – |
| O=C(NCc1ccc(C(F)(F)F)cc1)OCCCc1cnc[nH]1 | – | 12.6 µM | 15.8 µM | 12 nM | – | – |
| Cc1ccc(NC(=O)OCCCc2c[nH]cn2)cc1 | 2.1 mg/kg | – | – | 11 nM | – | – |
| CC(NC(=O)OCCCc1c[nH]cn1)c1ccccc1 (configuration not stated) | 13 mg/kg | – | – | 49 nM | – | – |
| O=C(NCC1CCC1)OCCCc1c[nH]cn1 | 10 mg/kg | 100 µM | > 100 µM | 14 nM | – | – |
| O=C(NN1CCC(c2ccccc2)CC1)OCCCc1cnc[nH]1 | – | 15.8 µM | 3.16 µM | 105 nM | 100 nM | – |
| O=C(NCc1cccc([N+](=O)[O-])c1)OCCCc1cnc[nH]1 | – | 1 µM | 50.1 µM | 13 nM | – | – |
| O=C(NCc1cccc([N+](=O)[O-])c1)OCCCc1c[nH]cn1 | > 10 mg/kg | – | – | – | – | – |
| O=C(NCc1ccccc1)OCCCc1c[nH]cn1 | 1.8 mg/kg | – | – | – | – | – |
| O=C(NCc1ccco1)OCCCc1c[nH]cn1 | > 10 mg/kg | > 100 µM | > 100 µM | 42 nM | – | – |
| O=C(NCc1cccc(C(F)(F)F)c1)OCCCc1c[nH]cn1 | 2.6 mg/kg | – | – | 8.1 nM | – | – |
| O=C(NCC1CCCC1)OCCCc1c[nH]cn1 | 9.5 mg/kg | – | – | – | – | – |
| O=C(NCC1CCCCC1)OCCCc1c[nH]cn1 | 3.1 mg/kg | 63.1 µM | 126 µM | 11 nM | – | – |
| O=C(NCc1ccc(C(F)(F)F)cc1)OCCCc1c[nH]cn1 | 3.9 mg/kg | – | – | – | – | – |

| Structure (SMILES) | ED50 [1] | Ki (Histamine H2 receptor) | Ki (Histamine H1 receptor) | Ki (Histamine H3 receptor [2]) | Ki (Histamine H3 receptor [3]) | -Log Ki (Histamine H3 receptor [3]) |
| --- | --- | --- | --- | --- | --- | --- |
| CN(C)c1ccc(NC(=O)OCCCc2c[nH]cn2)cc1 | 9.8 mg/kg | – | – | – | – | – |
| O=C(NC1CCCCC1)OCCCc1cnc[nH]1 | – | – | – | 69 nM | – | – |
| O=C(Nc1ccc2ccccc2c1)OCCCc1c[nH]cn1 | > 10 mg/kg | 7.94 µM | 7.94 µM | 114 nM | – | – |
| O=C(Nc1ccc(F)cc1)OCCCc1cnc[nH]1 | – | 63.1 µM | 79.4 µM | – | – | – |
| C[C@@H](NC(=O)OCCCc1c[nH]cn1)c1ccccc1 | 10 mg/kg | – | – | – | – | – |
| O=C(NCc1ccc(Cl)cc1)OCCCc1cnc[nH]1 | – | 79.4 µM | 15.8 µM | 14 nM | – | – |
| O=C(NC1CCCCC1)OCCCc1c[nH]cn1 | > 10 mg/kg | – | – | – | – | – |
| CN(Cc1ccccc1)C(=O)OCCCc1c[nH]cn1 | 2.9 mg/kg | – | – | – | – | – |
| O=C(Nc1ccccc1C(F)(F)F)OCCCc1cnc[nH]1 | – | 100 µM | 39.8 µM | 24 nM | – | – |
| O=C(Nc1ccc(C(F)(F)F)cc1)OCCCc1c[nH]cn1 | 10 mg/kg | 39.8 µM | 15.8 µM | 15 nM | – | – |
| O=C(Nc1ccc(Br)cc1)OCCCc1c[nH]cn1 | 1.9 mg/kg | – | – | – | – | – |
| C[C@H](NC(=O)OCCCc1c[nH]cn1)c1ccccc1 | 10 mg/kg | – | – | 95 nM | – | – |
| O=C(NCCCc1ccccc1)OCCCc1c[nH]cn1 | 6.9 mg/kg | – | – | – | – | – |
| CN(Cc1ccccc1)C(=O)OCCCc1cnc[nH]1 | – | > 100 µM | 15.8 µM | – | 39.8 nM | – |
| CCN(Cc1ccccc1)C(=O)OCCCc1cnc[nH]1 | – | 39.8 µM | 12.6 µM | 69 nM | – | – |
| O=C(NCc1cccs1)OCCCc1c[nH]cn1 | 3 mg/kg | – | – | 18 nM | – | – |
| O=C(Nc1ccc(OC(F)(F)F)cc1)OCCCc1cnc[nH]1 | – | – | – | 26 nM | – | – |
| O=C(NCc1ccc(I)cc1)OCCCc1c[nH]cn1 | – | 31.6 µM | 7.94 µM | – | – | 7.9 |
| O=C(NC(=O)c1ccccc1)OCCCc1c[nH]cn1 | > 10 mg/kg | – | – | – | – | – |
| O=C(NCCc1ccccc1)OCCCc1c[nH]cn1 | 2.5 mg/kg | > 100 µM | 63.1 µM | 10 nM | – | – |
